Reference: patent US7985556B2, “Method of screening apoptosis accelerating compound or anti-apoptotic compound and method of determining malignancy of neurodegenerative disease” (Hisamitsu Pharmaceutical Co., Inc., priority 2005, dated 2011)

How the values were obtained:
Format in all cases: cell-based, human
[1] = tested on: SH-SY5Y cells; assay: Apoptosis of SH-SY5Y cells by cisplatin treatment (TUNEL staining); settings: cisplatin final concentration 20 μM
Method: SH-SY5Y cells were cultured in the presence of cisplatin (final concentration: 20 μM). The cells were fixed with paraformaldehyde at prescribed time points after the start of culturing and subjected to TUNEL staining, and the TUNEL-positive cells were counted. […] The extent of cell death by cisplatin was detected.

[2] = tested on: NEDL1 gene expression in SH-SY5Y cells; assay: Expression analysis by RT-PCR in cisplatin treated SH-SY5Y cells; settings: cisplatin 20 μM, total RNA
Method: The RT-PCR, Western blotting, immunoprecipitation, luciferase reporter assay and cell fractionation were performed according to the procedure described in Ando et al., J. Biol. Chem., 279: 25549-25561, 2004. Colony formation was performed according to the procedure described in Ozaki et al., Cancer Res., 59: 5902-5907, 1999.
Under the same conditions as in Example 1, SH-SY5Y cells were treated with cisplatin and cells were recovered at a prescribed time point, after which the total RNA was extracted and expression of the NEDL1, NEDL2, NEDD4, p21^WAF1 and p53 genes was analyzed by RT-PCR. GAPDH was used as an expression level control.

[3] = tested on: p21WAF1, phosphorylated p53, p53 and NEDL1 protein expression in SH-SY5Y cells; assay: Expression analysis by Western blotting in cisplatin treated SH-SY5Y cells; settings: cisplatin 20 μM, total protein
Method: The RT-PCR, Western blotting, immunoprecipitation, luciferase reporter assay and cell fractionation were performed according to the procedure described in Ando et al., J. Biol. Chem., 279: 25549-25561, 2004. Colony formation was performed according to the procedure described in Ozaki et al., Cancer Res., 59: 5902-5907, 1999. Under the same conditions as in Example 1, SH-SY5Y cells were treated with cisplatin and cells were recovered at a prescribed time point, after which the total protein was extracted and the expression of p21^WAF1, phosphorylated p53 (p53 (Ser 15)), p53 and NEDL1 was analyzed by Western blotting. Actin was used as an expression level control.

N.N.[Cl][Pt][Cl] [cisplatin]
detected: cell death (TUNEL-positive cells) [1]
induced: Expression of NEDL1 (RT-PCR) [2] | Expression of NEDL1 (Western blotting) [3] | Expression of p21WAF1 (Western blotting) [3] | Expression of p53 (Western blotting) [3] | Expression of phosphorylated p53 (p53 (Ser 15)) (Western blotting) [3]
